# Measured values from patent publication US8329640B2, “Peptides with improved properties having the biological activity of vasoactive intestinal peptide (VIP) and their use for the treatment of lung diseases” (priority 2007, dated 2012).
# Where “and” joins values, the source holds several entries; their conditions need not be identical. Equal entries are not always repeated. No end group written: not given here.
# Assays:
# [1] = system: PASMC; assay: cAMP measurement in PASMC (cyclic AMP ELISA); type: cell-based; details: for cAMP +/− SD: 20 min; for cyclic AMP content of PASMC, effect in words: analogues compared with VIP
# Procedure: Effects of VIP and the peptides according to the invention are mediated by specific G-protein coupled receptors. Three distinct receptor subtypes, with differing affinity for the peptides, have been cloned and characterized as receptors 1 and 2 (VPAC1 and VPAC2) and pituitary adenylate cyclase activating polypeptide receptor (PAC1). The secondary messenger is cyclic adenosine mono phosphate (CAMP). […] Cells derived from pulmonary artery (PASMC) were seeded in 24 well plates and cultured in DMEM containing 10% fetal calf serum (Gibco lifesciences, Karlsruhe), Penicillin (Gibco lifesciences, Karlsruhe, 100 U/ml) Streptomycin (Gibco lifesciences, Karlsruhe, 100 U/ml) to confluency. […] The incubation is stopped by rinsing cells with PBS and immediate lysis of cells with HCl (0.1N) containing 3-isobutyl 1-methyl xanthine (500 μM) to block further hydrolysis of cAMP. Lysed cells were centrifuged and the supernatants assayed for cAMP using an commercially available cyclic AMP ELISA (Assay Designs, Inc., Michigan, distribution by Bio Trend, Köln).
# [2] = system: COPD patients; assay: Phase II double-blind, randomized, placebo-controlled clinical trial of inhaled VIP in COPD; details: VIP (n = 15)
# Procedure: Chronic obstructive pulmonary disease (COPD) is characterised by progressive airflow limitation associated with chronic inflammation. […] The efficacy and safety of VIP in patients was assessed with moderate to severe COPD.
# The present double-blind, randomized, placebo-controlled study was undertaken in an outpatient setting. COPD patients (n=34) were randomly assigned VIP 50 μg (n=17), or placebo (n=17), given per inhalation, 4 times daily for 12 weeks. VIP serum concentration was measured in all patients. Primary outcomes were health-related quality of life and exercise capacity. Secondary outcomes included the lung function parameters and COPD exacerbations.
# [3] = system: monocytes after LPS stimulation; assay: Nitrite (NO) production by monocytes/macrophages after LPS stimulation; type: cell-based, human; details: for Nitrit +/− SD: LPS 100 nM + peptide 100 nM, 24 hours, no LPS 48, LPS alone 75; for anti-inflammatory response (NO production) on simultaneous incubation with LPS: after 24 hours, analogues compared with VIP
# Procedure: Peripheral blood mononuclear cells were isolated from whole venous blood from 12 stable COPD patients and 12 healthy probands by Ficoll density gradient centrifugation. Monocytes were differentiated in RPMI-1640 medium supplemented with 5% FCS, antibiotics and 10^−8 M 1,25-dihydroxycholecalciferol (Sigma) in a humidified atmosphere with 5% CO2 at 37° C.
# For infection simulation, macrophage stimulation and experimental in vivo treatment the differentiated cells were incubated either with LPS, with LPS and SEQ ID No.:1 (VIP) or SEQ ID No.:2 (A-15) or SEQ ID No.:3 (A-18), or with medium alone for control.
# To test the hypothesis whether or not the macrophages utilize the VIP-signaling pathway to modulate and limit the immune response, the inflammation reaction in vitro was stimulated and NO (produced by iNOS) production by the cells was measured under inflammation and under in vitro therapy with VIP and the peptides according to the invention (SEQ ID Nos 2 and 3). NOS increased dramatically by LPS after 24 hours. […] This anti-inflammatory response was better by both VIP-analogues according to SEQ ID Nos. 2 and 3.
compound,measurement,setting,value
"C=C[C@@]1(C)CC(=O)[C@]2(O)[C@@]3(C)[C@@H](O)CCC(C)(C)[C@@H]3[C@H](O)[C@H](OC(C)=O)[C@@]2(C)O1 [Forskolin, reference compound]",cAMP +/− SD,[1]; Forskolin 10 μM + IBMX 500 μM,41.10 pmol/mL and 47.81 pmol/mL and 58.00 pmol/mL
"CC(C)Cn1c(=O)n(C)c(=O)c2[nH]cnc21 [IBMX, 3-isobutyl 1-methyl xanthine, reference compound]",cAMP +/− SD,[1]; IBMX 500 μM alone,16.37 pmol/mL and 17.16 pmol/mL and 15.91 pmol/mL
CC[C@H](C)[C@H](NC(=O)[C@H](CO)NC(=O)[C@H](CC(N)=O)NC(=O)[C@H](CC(C)C)NC(=O)[C@H](Cc1ccc(O)cc1)NC(=O)[C@H](CCCCN)NC(=O)[C@H](CCCCN)NC(=O)[C@@H](NC(=O)[C@H](C)NC(=O)[C@H](CCSC)NC(=O)[C@H](CCC(N)=O)NC(=O)[C@H](CCCCN)NC(=O)[C@H](CCCN=C(N)N)NC(=O)[C@H](CC(C)C)NC(=O)[C@H](CCCN=C(N)N)NC(=O)[C@@H](NC(=O)[C@H](Cc1ccc(O)cc1)NC(=O)[C@H](CC(N)=O)NC(=O)[C@H](CC(=O)O)NC(=O)[C@@H](NC(=O)[C@H](Cc1ccccc1)NC(=O)[C@@H](NC(=O)[C@H](C)NC(=O)[C@H](CC(=O)O)NC(=O)[C@H](CO)NC(=O)[C@@H](N)Cc1c[nH]cn1)C(C)C)[C@@H](C)O)[C@@H](C)O)C(C)C)C(=O)N[C@@H](CC(C)C)C(=O)N[C@@H](CC(N)=O)C(N)=O [VIP],"Adverse events: COPD exacerbation, number",[2],8
same,"Adverse events: COPD exacerbation, percent",[2],(53.3%)
same,"Adverse events: Diarrhoea NOS, number",[2],0
same,"Adverse events: Diarrhoea NOS, percent",[2],(0%)
same,"Adverse events: Nasopharyngitis, number",[2],0
same,"Adverse events: Nasopharyngitis, percent",[2],(0%)
same,"Adverse events: Nausea, number",[2],0
same,"Adverse events: Nausea, percent",[2],(0%)
same,"Adverse events: Upper respiratory tract infection, number",[2],1
same,"Adverse events: Upper respiratory tract infection, percent",[2],(6.7%)
His (Ac)-Ser-Asp-Ala-Val-Phe-Thr-Asp-Asn-Tyr-Thr-Arg-Leu-Arg-Lys-Gln-Met (O)-Ala-Val-Lys-Lys-Tyr-Leu-Asn-Ser-Ile-Leu-Asn [Pep - 15],Nitrit +/− SD,[3],16 µmol
same,anti-inflammatory response (NO production) on simultaneous incubation with LPS,[3],better
same,"cyclic AMP content of PASMC, effect in words",[1],Higher increase
same,cAMP +/− SD,[1]; peptide 1 nM + IBMX 500 μM,26.45 pmol/mL
same,cAMP +/− SD,"[1]; peptide 1 nM, without IBMX",13.30 pmol/mL
same,cAMP +/− SD,[1]; peptide 10 nM + IBMX 500 μM,27.00 pmol/mL
same,cAMP +/− SD,"[1]; peptide 10 nM, without IBMX",16.30 pmol/mL
same,cAMP +/− SD,[1]; peptide 100 nM + IBMX 500 μM,36.67 pmol/mL
same,cAMP +/− SD,"[1]; peptide 100 nM, without IBMX",23.30 pmol/mL
His (Ac)-Ser-Asp-Ala-Val-Phe-Thr-Asp-Asn-Tyr-Thr-Arg-Leu-Arg-Lys-Gln-Met-Ala-Val-Lys-Lys-Tyr-Leu-Asn-Ser-Val-Leu-Asn ({Ac-H2N}-SDAVFTDNYTRLRKQMAVKKYLNSVLN; not fully specified (residue 16); printed as His (Ac)-Ser-Asp-Ala-Val-Phe-Thr-Asp-Asn-Tyr-Thr-Arg-Leu-Arg-Lys-Gln-Met-Ala-Val-Lys-Lys-Tyr-Leu-Asn-Ser-Val-Leu-Asn) [Pep - 18],Nitrit +/− SD,[3],19 µmol
same,anti-inflammatory response (NO production) on simultaneous incubation with LPS,[3],better
same,"cyclic AMP content of PASMC, effect in words",[1],Higher increase
same,cAMP +/− SD,[1]; peptide 1 nM + IBMX 500 μM,36.66 pmol/mL
same,cAMP +/− SD,"[1]; peptide 1 nM, without IBMX",14.83 pmol/mL
same,cAMP +/− SD,[1]; peptide 10 nM + IBMX 500 μM,37.00 pmol/mL
same,cAMP +/− SD,"[1]; peptide 10 nM, without IBMX",19.45 pmol/mL
same,cAMP +/− SD,[1]; peptide 100 nM + IBMX 500 μM,46.42 pmol/mL
same,cAMP +/− SD,"[1]; peptide 100 nM, without IBMX",28.43 pmol/mL
